Reference: patent publication US20090264415A2 (priority 2004, published 2009)
Read-outs that look alike come from different tables or passages of the source. Each block holds one compound with its values, some of them ahead of it.

What was measured:
[1] = system: peripheral blood mononuclear cells (PBMC) stimulated with allogeneic PBMC or EBV-transformed human B cells (RPMI1788); experiment: Mixed lymphocyte reaction (MLR) assay; type: cell-based
In short: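 Responder PBMC co-cultured in triplicate with 30 Gy-irradiated allogeneic PBMC or RPMI1788 B cells plus compound (DMSO stock 10 mM, diluted in medium). After 5 days at 37° C, 1 μCi [3H]-thymidine added for 16 h more; incorporated cpm counted and proliferation inhibition calculated.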

[2] = system: HCV replicon in Huh-5-2 cells; experiment: Anti-HCV assay/replicon assay (luciferase); type: cell-based; conditions: Hepatitis C virus
Method: (§1) Huh-5-2 cells [a cell line with a persistent HCV replicon I3891uc-ubi-neo/NS3-3′/5.1; replicon with firefly luciferase-ubiquitin-neomycin phosphotransferase fusion protein and EMCV-IRES driven NS3-5B HCV polyprotein] was cultured in a RPMI medium (commercially available from Gibco) supplemented with 10% fetal calf serum, 2 mM L-glutamine (commercially available from Life Technologies), 1× non-essential amino acids (commercially available from Life Technologies); 100 IU/ml penicillin, 100 μg/ml streptomycin and 250 μg/ml G418 (Geneticin, commercially available from Life Technologies). Cells were seeded at a density of 7,000 cells per well in 96 well View Plate (commercially available from Packard) in a medium containing the same components as described above, except for G418. Cells were allowed to adhere and proliferate for 24 hours. […] Luciferase activity was measured by adding 50 μl of 1×Glo-lysis buffer (commercially available from Promega) for 15 minutes followed by 50 μl of the Steady-Glo Luciferase assay reagent (commercially available from Promega). Luciferase activity was measured with a luminometer and the signal in each individual well was expressed as a percentage of the untreated cultures. […] Instead the density of the culture was measured by means of the MTS method (commercially available from Promega). […]

[3] = Cytostatic effect on Huh-5-2 cells (MTS method); type: cell-based; conditions: human, 50% inhibition of cell growth
Method: as §1

[4] = system: production of human TNF-α by PBMC in response to LPS; experiment: TNF-α assay (LPS-stimulated PBMC, sandwich ELISA); type: cell-based
In short: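 Human PBMC isolated from heparinised blood by density gradient (10^6 cells/ml) stimulated with LPS at 1 μg/ml final, with test compound at 0.1, 1 and 10 μM, 72 h at 37° C, 5% CO2. Supernatant TNF-α quantified by sandwich ELISA against recombinant standard curve; % suppression calculated.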

[5] = system: production of human IL-1β by PBMC in response to LPS; experiment: IL-1β assay (LPS-stimulated PBMC, sandwich ELISA); type: cell-based; conditions: LPS 1 μg/ml, 72 hours
Method: Peripheral blood mononuclear cells (herein referred as PBMC), in response to stimulation by lipopolysaccharide (LPS), a gram-negative bacterial endotoxin, produce various […], in particular human IL-1β. Inhibition of the activation of PBMC can therefore be measured by the level of suppression of the production of IL-1β by PBMC in response to stimulation by LPS.
Such inhibition measurement was performed as follows: PBMC were isolated from heparinized peripheral blood by density gradient centrifugation over Lymphoprep (commercially available from Nycomed, Norway). LPS was then added to the PMBC suspension in complete medium (10^6 cells/ml) at a final concentration of 1 μg/ml. The pteridine derivative to be tested was added at different concentrations (0.1 μM, 1 μM and 10 μM) and the cells were incubated at 37° C. for 72 hours in 5% CO2. The supernatants were collected, then IL-1β concentrations were measured with an anti-IL-1β antibody in a sandwich ELISA. The calorimetric reading of the ELISA was measured by a Multiskan RC plate reader (commercially available from ThermoLabsystems, Finland) at 450 nm (reference wavelength: 690 nm). Data analysis was performed with Ascent software 2.6. (also from ThermoLabsystems, Finland): a standard curve (recombinant human IL-1β) was drawn and the amount (pg/ml) of each sample on the standard curve was determined.
The % suppression of human IL-1β by the pyrido[3,2-d]pyrimidine derivatives of this invention was calculated using the formula: [formula]

[6] = system: phosphodiesterase-4 (PDE-4) extract from U937 cells; experiment: Phosphodiesterase-4 inhibiting activity (isotopic two-step method); type: biochemical; conditions: 1.01 μM [3H]cAMP+cAMP
[7] = Homo sapiens, RPMI-1788, 50% suppression of the MLR, [3H]-thymidine incorporation, read-out: MLR
[8] = Homo sapiens, PBMC, LPS 1 μg/ml, 72 hours, read-out: TNF α

melting point: 317 to 319 °C
SMILES: CC(=O)Nc1nc2ccc(Cl)nc2c(=O)[nH]1

melting point: 233 °C
SMILES: CCOc1nc(NC(C)=O)nc2ccc(Cl)nc12

melting point: 191 to 192 °C
SMILES: CC(C)Oc1nc(N)nc2ccc(-c3ccc(F)cc3)nc12

melting point: 170 °C
SMILES: CCCCOc1nc(NC(C)=O)nc2ccc(-c3ccc(F)cc3)nc12

melting point: 148 °C
SMILES: CCC(C)Oc1nc(N)nc2ccc(-c3ccc(F)cc3)nc12 (stereo not drawn)

SMILES: COc1ccc(-c2ccc3nc(N)nc(Nc4cccc(C)c4)c3n2)cc1OC [Example 27, 2-amino-4-(3-methyl-anilino)-6-(3,4-dimethoxyphenyl)-pyrido[3,2-d]pyrimidine]
IC50 [1, 7]: 5700 nM
EC50 ([2]; Huh-5-2 replicon cells, 72 hours, read-out: EC50): 500 nM
CC50 at 72 h [3]: > 50 µM
IC50 [4, 8]: 6.4 µM

SMILES: COc1ccc(-c2ccc3nc(N)nc(NCc4cccs4)c3n2)cc1OC [Example 32, 2-amino-4-(thienyl-2-methylamino)-6-(3,4-dimethoxyphenyl)-pyrido[3,2-d]pyrimidine-2,4-diamine]
IC50 ([1]; 50% suppression of the MLR, [3H]-thymidine incorporation, read-out: MLR): 800 nM
IC50 [5]: 6.9 µM
IC50 ([4]; LPS 1 μg/ml, 72 hours, read-out: TNF α): 0.8 µM

SMILES: COc1ccc(-c2ccc3nc(N)nc(N[C@H]4CC[C@H](N)CC4)c3n2)cc1OC [Example 36]
IC50 ([1]; Homo sapiens, RPMI-1788, read-out: MLR (μM)): 6500 nM
EC50 ([2]; Huh-5-2, 72 h): 1000 nM
CC50 at 72 h [3]: 7.7 µM
IC50 ([4]; Homo sapiens, PBMC, 72 h, read-out: TNF α (μM)): 2.9 µM

IC50 [6]: 410 nM
SMILES: COc1ccc(-c2ccc3nc(N)nc(N4CCOCC4)c3n2)cc1OC [Example 41, 2-amino-4-morpholino-6-(3,4-dimethoxyphenyl)-pyrido[3,2-d]pyrimidine]
IC50 [1, 7]: 37 nM
IC50 ([5]; Homo sapiens, PBMC): 7.9 µM
IC50 [4, 8]: 0.03 µM

IC50 [6]: 61 nM
SMILES: COc1ccc(-c2ccc3nc(N)nc(N4CCN(C(=O)Nc5cccc(C)c5)CC4)c3n2)cc1OC [Example 42, 2-amino-4-(4-{[(3-methylphenyl)amino]carbonyl}piperazin-1-yl)-6-(3,4-dimethoxyphenyl)-pyrido[3,2-d]pyrimidine]
IC50 [1, 7]: 0.064 nM
IC50 ([5]; Homo sapiens, PBMC): 1.8 µM
IC50 [4, 8]: 0.06 µM
